Where a name gives a salt, the structure may show the parent alone.
Test system: Aβ 40 production in HEK-293 cells overexpressing swAPP751
Test: Inhibition of Aβ 40 production in HEK-293 cells overexpressing swAPP751 (sandwich ELISA)
Type: cell-based
Settings: Homo sapiens, HEK293, 7 hours incubation
Protocol: An exemplary assay for the analysis of inhibition of beta-secretase activity utilizes the human embryonic kidney cell line HEK-293 (ATCC Accession No. CRL-1573) stably transfected with APP751 containing the naturally occurring double mutation […] to Asn651Leu652 (numbered for APP751), commonly called the “Swedish mutation” and shown to overproduce Aβ 40 and Aβ 42 (Citron et. al., 1992, Nature 360:672-674). The cells were plated in 10 cm plates and in Dulbecco's Modified Eagle's medium (DMEM, Sigma D-6546) containing 10% fetal bovine serum. After cells are established (3 days post plating), cells are incubated in the presence/absence of the inhibitory compound (diluted in DMSO) at the desired concentration, generally from 0.2 to 20 μM, and with a final concentration of DMSO of 0.1%. Cells were incubated for 7 hours in the presence of phosphoramidon (1 μM) (Sigma). Media and cell lysates were collected, centrifuged, normalized to total protein and assayed for Aβ 40 and Aβ 42 by sandwich ELISA according to the manufacturer's instructions (Biosource International). For Aβ 42 detection, samples are concentrated on YM3 Microcon columns (Millipore). […] Aβ levels are determined by the difference between the Aβ values for the compound treatment and baseline periods. Dose response curves are plotted as percent inhibition versus compound concentration.

SMILES: FC(F)(F)c1ccc2c(SCCCCCOc3ccc(CN4CCOCC4)cc3)ccnc2c1 [Compound 8, 4-(5-(4-(morpholinomethyl)phenoxy)pentylthio)-7-(trifluoromethyl)quinoline dihydrochloride]
- IC50: 5.13 µM

SMILES: O=[N+]([O-])c1cc(CN2CCCCC2)ccc1OCCCCCSc1ccnc2cc(C(F)(F)F)ccc12 [Compound 11, 4-(5-(2-nitro-4-((piperidin-1-yl)methyl)phenoxy)pentylthio)-7-(trifluoromethyl)quinoline dihydrochloride]
- IC50: 2.45 µM

SMILES: CCn1ncc2c(OCCCCCSc3ccnc4cc(C(F)(F)F)ccc34)ccnc21 [Compound 19, 4-(5-(1-Ethyl-1H-pyrazolo[3,4-b]pyridin-4-yloxy)pentylthio)-7-(trifluoromethyl)quinoline dihydrochloride]
- IC50: 15.5 µM

SMILES: FC(F)(F)c1ccc2c(SCCCCCOc3ccc(CN4CCCCC4)cc3Cl)ccnc2c1 [Compound 10, 4-(5-(2-Chloro-4-((piperidin-1-yl)methyl)phenoxy)pentylthio)-7-(trifluoromethyl)quinoline dihydrochloride]
- IC50: 8.5 µM

SMILES: COc1cc(CN2CCOCC2)ccc1OCCCCCOc1ccnc2cc(Cl)ccc12 [Compound 22, 4-(5-(2-Methoxy-4-(morpholinomethyl)phenoxy)pentyloxy)-7-chloroquinoline dihydrochloride]
- IC50: 9.3 µM

SMILES: Nc1cc(CN2CCCCC2)ccc1OCCCCCSc1ccnc2cc(C(F)(F)F)ccc12 [Compound 13, 2-(5-(7-(Trifluoromethyl)quinolin-4-ylthio)pentyloxy)-5-((piperidin-1-yl)methyl)benzenamine trihydrochloride]
- IC50: 8.26 µM

SMILES: OCc1ccc(OCCCCCSc2ccnc3cc(C(F)(F)F)ccc23)cc1 [Compound 12, (4-(5-(7-(trifluoromethyl)quinolin-4-ylthio)pentyloxy)phenyl)methanol hydrochloride]
- IC50: 7.3 µM

SMILES: Clc1ccc2c(OCCCCCOc3ccc(CN4CCOCC4)cc3)ccnc2c1 [Compound 23, 4-(5-(4-(morpholinomethyl)phenoxy)pentyloxy)-7-chloroquinoline dihydrochloride]
- IC50: 2.5 µM

SMILES: CC(C)(C)C(=O)N1CCN(Cc2ccc(OCCCCCSc3ccnc4cc(C(F)(F)F)ccc34)cc2)CC1 [Compound 3, 1-(4-((4-(5-(7-(trifluoromethyl)quinolin-4-ylthio)pentyloxy)phenyl)methyl)piperazin-1-yl)-2,2-dimethylpropan-1-one dihydrochloride]
- IC50: 1.9 µM

SMILES: CCOC(=O)[C@H](Cc1ccc(OCCCCCSc2ccnc3cc(C(F)(F)F)ccc23)cc1)NC(C)=O [Compound 14, (S)-ethyl 3-(4-(5-(7-(trifluoromethyl)quinolin-4-ylthio)pentyloxy)phenyl)-2-acetamidopropanoate hydrochloride]
- IC50: 0.72 µM

SMILES: COc1cc(CN2CCOCC2)ccc1OCCCCCSc1ccnc2cc(C(F)(F)F)ccc12 [Compound 24, 4-(5-(2-methoxy-4-(morpholinomethyl)phenoxy)pentylthio)-7-(trifluoromethyl)quinoline dihydrochloride]
- IC50: 9.9 µM

SMILES: CCN(CC)C(=O)N1CCN(Cc2ccc(OCCCCCSc3ccnc4cc(C(F)(F)F)ccc34)cc2)CC1 [Compound 2, 4-((4-(5-(7-(trifluoromethyl)quinolin-4-ylthio)pentyloxy)phenyl)methyl)-N,N-diethylpiperazine-1-carboxamide dihydrochloride]
- IC50: 2.4 µM

SMILES: FC(F)(F)c1ccc2c(SCCCCCOc3ccc(CN4CCNCC4)cc3)ccnc2c1 [Compound 1, 4-(5-(4-((piperazin-1-yl)methyl)phenoxy)pentylthio)-7-(trifluoromethyl)quinoline trihydrochloride]
- IC50: 11.6 µM

SMILES: FC(F)(F)c1ccc2c(SCCCCCOc3ccc(CN4CCCCC4)cc3)ccnc2c1 [Compound 5, 4-(5-(4-((piperidin-1-yl)methyl)phenoxy)pentylthio)-7-(trifluoromethyl)quinoline dihydrochloride]
- IC50: 5.16 µM
